Measurements from US6355799B1, “Substituted benzene compounds, process for their preparation, and herbicidal and defoliant compositions containing them” (ISK Americas Incorporated, priority 1997, dated 2002).

Assays:
Type in all cases: in vivo
[1] = test system: redroot pigweed (Amaranthus retroflexus, AMARE); test: Pre-emerge test, greenhouse herbicide activity screening; conditions: pre-emerge, rated 14 days after application, 0 = no damage, 100 = complete death
Outline: (§1)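 Rating: 0–100 visual injury, 14 DAA. Application: acetone, 187 l/ha, 15–1000 g ai/ha, flat-fan track sprayer with nozzle 40–45 cm above soil or canopy. Post-emerge runs used 0.25% v/v surfactant on 2–3 leaf plants.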

[2] = test system: barnyardgrass (Echinochloa crus-galli, ECHCG); test: as above; conditions: pre-emerge, rated 14 days after application, 0 = no damage, 100 = complete death
Outline: as §1

[3] = test system: common ragweed (Ambrosia artemisizfolia L., AMBEL); test: as above; conditions: pre-emerge, rated 14 days after application, 0 = no damage, 100 = complete death
Outline: as §1

[4] = test system: green foxtail (Setaria viridis, SETVI); test: as above; conditions: pre-emerge, rated 14 days after application, 0 = no damage, 100 = complete death
Outline: as §1

[5] = test system: ivyleaf morningglory (Ipomoea hederacea, IPOHE); test: as above; conditions: pre-emerge, rated 14 days after application, 0 = no damage, 100 = complete death
Outline: as §1

[6] = test system: johnsongrass (Sorghum halepense, SORHA); test: as above; conditions: pre-emerge, rated 14 days after application, 0 = no damage, 100 = complete death
Outline: as §1

[7] = test system: lambsquarters (Chenopodium album, CHEAL); test: as above; conditions: pre-emerge, rated 14 days after application, 0 = no damage, 100 = complete death
Outline: as §1

[8] = test system: large crabgrass (Digitaria sanguinalis, DIGSA); test: as above; conditions: pre-emerge, rated 14 days after application, 0 = no damage, 100 = complete death
Outline: as §1

[9] = test system: sicklepod (Cassia obtusifolia, CASOB); test: as above; conditions: pre-emerge, rated 14 days after application, 0 = no damage, 100 = complete death
Outline: as §1

[10] = test system: velvetleaf (Abutilon theophrasti, ABUTH); test: as above; conditions: pre-emerge, rated 14 days after application, 0 = no damage, 100 = complete death
Outline: as §1

[11] = test system: field corn (Zea mays L., var. Dekalb 535, CORN); test: Pre-emerge test, crop safety; conditions: pre-emerge, rated 14 days after application, 0 = no damage, 100 = complete death
Outline: (§2)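 Applied at 15–1000 g ai/ha from acetone in 187 l/ha spray volume. Post-emergence applications included 0.25% v/v non-ionic surfactant and reached plants sown 8–21 days before. Pre-emergence applications were incorporated by surface watering. Efficacy or crop damage was rated on a 0–100 scale after 14 days.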

[12] = test system: upland rice (Oryza sp., var. Tebonnet, RICE); test: Pre-emerge test, crop safety; conditions: pre-emerge, rated 14 days after application, 0 = no damage, 100 = complete death
Outline: as §2

[13] = test system: barnyardgrass (Echinochloa crus-galli, ECHCG); test: Post-emerge test, greenhouse herbicide activity screening; conditions: phytotoxicity rating 0-100 (0 no damage, 100 complete death), 14 days after application
Outline: (§3)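 Visual ratings on a 0-100 scale (0 no damage, 100 all plants dead) were taken at 14 days after treatment. Rates of 15-1000 g ai/ha in acetone, 187 l/ha, were sprayed onto soil one day after planting (pre-emerge) or onto 2-3 leaf plants with 0.25% v/v surfactant (post-emerge).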

[14] = test system: common ragweed (Ambrosia artemisizfolia L., AMBEL); test: as above; conditions: phytotoxicity rating 0-100 (0 no damage, 100 complete death), 14 days after application
Outline: as §3

[15] = test system: ivyleaf morningglory (Ipomoea hederacea, IPOHE); test: as above; conditions: phytotoxicity rating 0-100 (0 no damage, 100 complete death), 14 days after application
Outline: as §3

[16] = test system: johnsongrass (Sorghum halepense, SORHA); test: as above; conditions: phytotoxicity rating 0-100 (0 no damage, 100 complete death), 14 days after application
Outline: as §3

[17] = test system: lambsquarters (Chenopodium album, CHEAL); test: as above; conditions: phytotoxicity rating 0-100 (0 no damage, 100 complete death), 14 days after application
Outline: as §3

[18] = test system: large crabgrass (Digitaria sanguinalis, DIGSA); test: as above; conditions: phytotoxicity rating 0-100 (0 no damage, 100 complete death), 14 days after application
Outline: as §3

[19] = test system: redroot pigweed (Amaranthus retroflexus, AMARE); test: as above; conditions: phytotoxicity rating 0-100 (0 no damage, 100 complete death), 14 days after application
Outline: as §3

[20] = test system: sicklepod (Cassia obtusifolia, CASOB); test: as above; conditions: phytotoxicity rating 0-100 (0 no damage, 100 complete death), 14 days after application
Outline: as §3

[21] = test system: velvetleaf (Abutilon theophrasti, ABUTH); test: as above; conditions: phytotoxicity rating 0-100 (0 no damage, 100 complete death), 14 days after application
Outline: as §3

[22] = test system: field corn (Zea mays L., var. Dekalb 535, CORN); test: Post-emerge test, crop safety; conditions: phytotoxicity rating 0-100 (0 no damage, 100 complete death), 14 days after application
Outline: (§4)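 Plants grown in 10 cm pots of sandy loam mix received acetone-dissolved compounds through a moving flat-fan nozzle. Doses ranged from 15 to 1000 g ai/ha. Pre-emerge pots were seeded one day earlier, post-emerge pots 8–21 days earlier. Fourteen days on, each pot was graded 0–100 for damage.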

[23] = test system: upland rice (Oryza sp., var. Tebonnet, RICE); test: Post-emerge test, crop safety; conditions: phytotoxicity rating 0-100 (0 no damage, 100 complete death), 14 days after application
Outline: as §4

SMILES: COc1c(Cl)cc(F)c(-n2c(=O)cc(C(F)(F)F)n(C)c2=O)c1NC(=O)c1cccc(C)c1 [2-23]
- Pre-emerge Herbicidal Activity AMARE (phytotoxicity rating, scale 0-100) ([1]; 63 g ai/ha): 100
- Pre-emerge Herbicidal Activity AMARE (phytotoxicity rating, scale 0-100) ([1]; 250 g ai/ha): 100
- Pre-emerge Herbicidal Activity ECHCG (phytotoxicity rating, scale 0-100) ([2]; 63 g ai/ha): 80
- Pre-emerge Herbicidal Activity ECHCG (phytotoxicity rating, scale 0-100) ([2]; 250 g ai/ha): 100
- Pre-emerge Herbicidal Activity AMBEL (phytotoxicity rating, scale 0-100) ([3]; 63 g ai/ha): 100
- Pre-emerge Herbicidal Activity AMBEL (phytotoxicity rating, scale 0-100) ([3]; 250 g ai/ha): 100
- Pre-emerge Herbicidal Activity SETVI (phytotoxicity rating, scale 0-100) ([4]; 63 g ai/ha): 100
- Pre-emerge Herbicidal Activity SETVI (phytotoxicity rating, scale 0-100) ([4]; 250 g ai/ha): 100
- Pre-emerge Herbicidal Activity IPOHE (phytotoxicity rating, scale 0-100) ([5]; 63 g ai/ha): 100
- Pre-emerge Herbicidal Activity IPOHE (phytotoxicity rating, scale 0-100) ([5]; 250 g ai/ha): 100
- Pre-emerge Herbicidal Activity SORHA (phytotoxicity rating, scale 0-100) ([6]; 63 g ai/ha): 60
- Pre-emerge Herbicidal Activity SORHA (phytotoxicity rating, scale 0-100) ([6]; 250 g ai/ha): 90
- Pre-emerge Herbicidal Activity CHEAL (phytotoxicity rating, scale 0-100) ([7]; 63 g ai/ha): 100
- Pre-emerge Herbicidal Activity CHEAL (phytotoxicity rating, scale 0-100) ([7]; 250 g ai/ha): 100
- Pre-emerge Herbicidal Activity DIGSA (phytotoxicity rating, scale 0-100) ([8]; 63 g ai/ha): 70
- Pre-emerge Herbicidal Activity DIGSA (phytotoxicity rating, scale 0-100) ([8]; 250 g ai/ha): 100
- Pre-emerge Herbicidal Activity CASOB (phytotoxicity rating, scale 0-100) ([9]; 63 g ai/ha): 70
- Pre-emerge Herbicidal Activity CASOB (phytotoxicity rating, scale 0-100) ([9]; 250 g ai/ha): 100
- Pre-emerge Herbicidal Activity ABUTH (phytotoxicity rating, scale 0-100) ([10]; 63 g ai/ha): 100
- Pre-emerge Herbicidal Activity ABUTH (phytotoxicity rating, scale 0-100) ([10]; 250 g ai/ha): 100
- Pre-emerge crop damage CORN (phytotoxicity rating, scale 0-100) ([11]; 63 g ai/ha): 60
- Pre-emerge crop damage CORN (phytotoxicity rating, scale 0-100) ([11]; 250 g ai/ha): 100
- Pre-emerge crop damage RICE (phytotoxicity rating, scale 0-100) ([12]; 63 g ai/ha): 80
- Pre-emerge crop damage RICE (phytotoxicity rating, scale 0-100) ([12]; 250 g ai/ha): 95
- Post-emerge Herbicidal Activity ECHCG ([13]; 63 g ai/ha): 0
- Post-emerge Herbicidal Activity ECHCG ([13]; 250 g ai/ha): 30
- Post-emerge Herbicidal Activity AMBEL ([14]; 63 g ai/ha): 90
- Post-emerge Herbicidal Activity AMBEL ([14]; 250 g ai/ha): 100
- Post-emerge Herbicidal Activity IPOHE ([15]; 63 g ai/ha): 100
- Post-emerge Herbicidal Activity IPOHE ([15]; 250 g ai/ha): 100
- Post-emerge Herbicidal Activity SORHA ([16]; 63 g ai/ha): 50
- Post-emerge Herbicidal Activity SORHA ([16]; 250 g ai/ha): 90
- Post-emerge Herbicidal Activity CHEAL ([17]; 63 g ai/ha): 70
- Post-emerge Herbicidal Activity CHEAL ([17]; 250 g ai/ha): 90
- Post-emerge Herbicidal Activity DIGSA ([18]; 63 g ai/ha): 0
- Post-emerge Herbicidal Activity DIGSA ([18]; 250 g ai/ha): 70
- Post-emerge Herbicidal Activity AMARE ([19]; 63 g ai/ha): 70
- Post-emerge Herbicidal Activity AMARE ([19]; 250 g ai/ha): 100
- Post-emerge Herbicidal Activity CASOB ([20]; 63 g ai/ha): 95
- Post-emerge Herbicidal Activity CASOB ([20]; 250 g ai/ha): 100
- Post-emerge Herbicidal Activity ABUTH ([21]; 63 g ai/ha): 100
- Post-emerge Herbicidal Activity ABUTH ([21]; 250 g ai/ha): 100
- Post-emerge Herbicidal Activity CORN (crop damage) ([22]; 63 g ai/ha): 40
- Post-emerge Herbicidal Activity CORN (crop damage) ([22]; 250 g ai/ha): 90
- Post-emerge Herbicidal Activity RICE (crop damage) ([23]; 63 g ai/ha): 50
- Post-emerge Herbicidal Activity RICE (crop damage) ([23]; 250 g ai/ha): 95
